From patent US20050215641A1, “Compositions comprising reverse isomers of conjugated linoleic acid” (priority 2004, published 2005) come the findings set out here.

One data set concerns cows. Kind of data set: Milk fat depression model, continuous abomasal infusion of CLA isomer emulsions (Example 3). The format is in vivo. To be noted: for Yield Fat / Concentration Fat: abomasal infusion of emulsion, 1 g/L CLA, over four days; for Yield Fat: mean treatment effects; for Concentration Fat: milk; for inhibitory effects on lipid synthesis: milk fat depression model, general statement. The method, then: When CLA is prepared with alkaline isomerization of linoleic acid, the isomers t10,c12 and c9,t11 are formed. Further, trans, trans isomers of 9,11 and 10,12 can be formed catalytically at high temperatures, as well as t8,c10 and c11,t13. […] This example describes, for the first time, a biological effect of the c10,t12 isomer of CLA.
Emulsions of three different isomer preparations (see Table 2; t10,c12; t10,t12; and a mixture of t10, c12; c10,t12 and t10,t12 isomers; prepared as described in Example 1) were prepared essentially the same way as described by Chouinard, et al., J. Nutr. 129:1579 [1999]. The concentration of CLA in these emulsions was 1 g/L and the emulsions were administered continuously to cows at the rate of 3 1/24 h over four days as described by Chouinard, et al., J. Nutr. 129:1579 [1999]. Briefly, the emulsions were continuously infused into the abomasum via infusion lines that pass through the rumen cannula and omasal canal and peristaltic pumps. Milk was sampled daily and concentration of milk fat was determined by infrared analysis using Milko-Scan 133B analyser (Foss Electric, Hillerød, Denmark). […] Table 3 presents the mean treatment effects on intake and milk production.

The test system of the next data set is lactating Holstein cows. Kind of data set: Milk fat depression model, abomasal infusion of CLA supplements, 4x4 Latin square (Example 4). The format is in vivo. Conditions: for Milk fat yield reduced / Milk fat % / Milk fat kg/d: 5 g/d of isomer of interest; for Milk fat yield reduced: 5 d; for Milk fat yield reduced / transfer efficiency of specific CLA isomers within respective treatment groups: P<0.001; for Milk fat % / Milk fat kg/d: average of day 4 and 5 of supplementation; for transfer efficiency of specific CLA isomers within respective treatment groups: abomasal infusion 5 g/d; for inhibitory effects on lipid synthesis: milk fat depression model, general statement. The text has this:
Four rumen-fistulated lactating Holstein cows (149±18 DIM) were randomly assigned in a 4×4 Latin square experiment. Treatments were abomasal infusions of 1) ethanol (control), 2) trans-10, cis-12 CLA supplement (positive control), 3) trans-9, trans-11 CLA supplement, and 4) trans-9, cis-11 CLA supplement. The trans-10, cis-12 and trans-9, trans-11 CLA supplements were of high purity (>90%), whereas the trans-9, cis-11 CLA supplement consisted mainly of 3 CLA isomers: trans-9, cis-11 (32%), cis-9, trans-11 (29%) and trans-9, trans-11 (17%). CLA supplements supplied 5 g/d of the CLA isomer of interest and the daily dose was provided by infusion at 6 h intervals. Treatment periods were 5 d in length with a 7 d washout interval. Milk yield and DMI were unaffected by treatment (P>0.05). Milk fat yield was reduced 27% by the trans-10, cis-12 CLA treatment and 15% by the trans-9, cis-11 CLA treatment, while the trans-9, trans-11 CLA treatment had no effect (P<0.001). Milk protein content and yield were reduced by the trans-9, trans-11 CLA treatment only (P<0.01). The transfer efficiency of specific CLA isomers within respective treatment groups was 22% for trans-10, cis-12 CLA, 21% for trans-9, trans-11 CLA and 46% for trans-9, cis-11 CLA (P<0.001). […] The data are summarized in Tables 4 and 5 and FIGS. 3 and 4.

Data set [1] is described as follows: Peroxide values (PV) by ferric thiocyanate method after storage. The format is physicochemical. Conditions: after storage in open glass. From the text: The present invention also contemplates stabilization of the c10,t12, c10,c12, t9,c11 and/or c9,c11 compositions by preventing oxidation of the compounds. The present invention is not limited to any one mechanism. Indeed, an understanding of the mechanism of the invention is not necessary to produce the composition or perform the methods of the present invention. […] After storage in open glass, the PV of CLA was 32; in comparison, the value for linoleic acid was 370.

Marks after values point to notes of the source that are not given here.

As for `CCCCC/C=C\C=C\CCCCCCCCC(=O)O` [t10, c12, t10,c12 octadecadienoic acid], in the data set on cows, the “Yield Fat” value was 573^ab g/day and the “Concentration Fat” value is reported as 29.1^b g/kg. For the same compound, in the data set on lactating Holstein cows, the “Milk fat yield reduced” value came to 27%, the Milk fat % was 2.54^d %, the Milk fat kg/d was 0.541^c kg/d and the “transfer efficiency of specific CLA isomers within respective treatment groups” value was 22%.

Turning to `CCCCCC/C=C\C=C\CCCCCCCC(=O)O` [t9,c11, t9,c11 octadecadienoate], in the data set on lactating Holstein cows, the “inhibitory effects on lipid synthesis” value is “strong inhibitory effects”.

Take `CCCCC/C=C/C=C\CCCCCCCCC(=O)O` [c10,t12, c10,t12 octadecadienoic acid]: the “inhibitor of lipid synthesis” value in the data set on cows (concluded from the effect of the isomer mixture versus purified t10,c12) is given as “stronger inhibitor of lipid synthesis than t10,c12”. Besides, in the data set on cows, the “inhibitory effects on lipid synthesis” value is given as “strong inhibitory effects”.

For `CCCCC/C=C\C/C=C\CCCCCCCC(=O)O` [linoleic acid], the “peroxide values (PV)” value in data set [1] turned out to be 370.

On to `CCCCC/C=C/C=C/CCCCCCCCC(=O)O` [t10, t12, t10,t12 CLA], for which, in the data set with cows, the “Yield Fat” value is listed as 694^a g/day and the “Concentration Fat” value is 7.2^a g/kg. The “effect on the concentration of milk fat” value with cows (purified form) is on record as “did not have any effect”.

Take `CCCCCC/C=C\C=C/CCCCCCCC(=O)O` [c9,c11]: the “inhibitory effects on lipid synthesis” value with lactating Holstein cows is reported as “strong inhibitory effects”.

As to `CCCCCC/C=C/C=C/CCCCCCCC(=O)O` [t9, t11 CLA], in the data set with lactating Holstein cows, the “Milk fat yield reduced” value was “no effect”, the Milk fat % is on record as 4.03^a %, the Milk fat kg/d is 0.770^a kg/d and the “transfer efficiency of specific CLA isomers within respective treatment groups” value is recorded as 21%.

Turning to `CCCCC/C=C\C=C/CCCCCCCCC(=O)O` [c10,c12, c10,c12 octadecadienoic acid], in the data set on cows, the “inhibitory effects on lipid synthesis” value was “strong inhibitory effects”.
